Patent US12528794B2, “MAO-B inhibitor DRG-MAOB-1 for use in treatment of neurodegenerative diseases” (BAHCESEHIR UNIVERSITESI, priority 2020, dated 2026)

What was measured:
[1] = target: T1, human MAO-B (Homo sapiens, UniProt P27338); assay: MAO inhibitory assay (kynuramine, fluorescence), MAO-B; assay type: biochemical
T1 sequence (P27338 1-520): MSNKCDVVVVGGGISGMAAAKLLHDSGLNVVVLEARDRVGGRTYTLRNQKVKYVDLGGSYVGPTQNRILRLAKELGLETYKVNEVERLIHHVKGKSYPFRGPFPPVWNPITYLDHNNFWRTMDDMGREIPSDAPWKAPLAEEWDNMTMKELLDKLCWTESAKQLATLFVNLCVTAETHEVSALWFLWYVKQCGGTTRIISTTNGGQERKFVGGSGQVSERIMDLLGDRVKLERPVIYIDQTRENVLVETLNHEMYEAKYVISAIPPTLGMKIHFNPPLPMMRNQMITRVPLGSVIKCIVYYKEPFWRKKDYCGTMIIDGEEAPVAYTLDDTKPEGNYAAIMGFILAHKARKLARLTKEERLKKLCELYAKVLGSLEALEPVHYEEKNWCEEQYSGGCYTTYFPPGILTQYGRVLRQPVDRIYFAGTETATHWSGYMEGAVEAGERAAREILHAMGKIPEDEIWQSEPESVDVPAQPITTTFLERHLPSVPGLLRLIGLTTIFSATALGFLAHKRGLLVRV
Description: (§1) MAO inhibitory activity was assayed using the method of Novaroli et al. with minor modifications. Briefly, 140 μL of 0.1 M potassium phosphate buffer (pH 7.4), 8 μL of 0.75 mM kynuramine, and 2 μL of a dimethyl sulfoxide (DMSO) inhibitor solution (final DMSO concentration of 1% (v/v) and final concentrations of the inhibitors of 0-1 μM), were preincubated at 37° C. for 10 min. Diluted human recombinant enzyme (50 μL) was then added to obtain a final protein concentration of 0.0075 mg/mL (MAO-A) or 0.015 mg/mL (MAO-B) in the assay mixture. The reaction mixture was further incubated at 37° C. and the reaction was stopped after 20 min by the addition of 75 μL of 2 M NaOH. The product generated by MAO, 4-quinolinol, is fluorescent and was measured at Ex 310 nm/Em 400 nm using a microplate reader (Thermo Scientific-Multiskan GO). Each data points of samples were triplicate. The sample solution was replaced with DMSO to provide a negative control. The IC50 values were calculated from a line through two points which sandwiched the point of 50% (IC50) by plotting the remained activity (%) related to control (100%) versus the logarithm of the inhibitor concentration to obtain a sigmoidal dose-response curve

[2] = target: T2, human MAO-A (Homo sapiens, UniProt P21397); assay: MAO inhibitory assay (kynuramine, fluorescence), MAO-A; assay type: biochemical; conditions: human recombinant enzyme, kynuramine substrate, 37° C., triplicate
T2 sequence (P21397 1-527): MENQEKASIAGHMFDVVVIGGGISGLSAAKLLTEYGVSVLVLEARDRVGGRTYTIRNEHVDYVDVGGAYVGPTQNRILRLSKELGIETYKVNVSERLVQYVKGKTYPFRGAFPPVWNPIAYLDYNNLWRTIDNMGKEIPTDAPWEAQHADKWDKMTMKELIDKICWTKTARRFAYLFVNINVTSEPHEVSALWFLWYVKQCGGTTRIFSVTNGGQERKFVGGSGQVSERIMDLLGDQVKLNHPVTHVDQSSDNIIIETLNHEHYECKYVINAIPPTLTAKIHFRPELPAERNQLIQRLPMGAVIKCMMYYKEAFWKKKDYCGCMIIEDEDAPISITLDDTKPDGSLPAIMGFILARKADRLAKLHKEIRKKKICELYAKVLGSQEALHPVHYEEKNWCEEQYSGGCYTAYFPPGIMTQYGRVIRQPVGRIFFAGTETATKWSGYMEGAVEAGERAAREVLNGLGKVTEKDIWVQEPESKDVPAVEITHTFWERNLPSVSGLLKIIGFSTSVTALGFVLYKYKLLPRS
Description: as §1

With Cn1nc(C(=O)NCCc2nc3ccccc3[nH]2)c2ccccc21 (racemic) [compound of formula I] the “fold more potent binding to MOA-B compared to MOA-A” value ([1]; MAO-B over MAO-A, from IC50 values) was “approximately 13 fold”, the IC50 ([1]; human recombinant enzyme, kynuramine substrate, 37° C., triplicate) was 4.02 ± 0.03 nM and the IC50 [2] was 54.8 ± 1.9 nM.
